From ChEMBL document CHEMBL1128959, “Quinoline-substituted dihydroindoles as cysLT1 (LTD4 receptor) antagonists” (Bioorg Med Chem Lett, 1996)

Assays:
[1] = target: T1, Cysteinyl leukotriene receptor 1 (Cavia porcellus) (UniProt Q2NNR5); assay: Compound was tested for its inhibitory activity against specific binding of [3H]LTD4 to guinea pig ileum.; assay type: tissue-based
T1 sequence (whole entry): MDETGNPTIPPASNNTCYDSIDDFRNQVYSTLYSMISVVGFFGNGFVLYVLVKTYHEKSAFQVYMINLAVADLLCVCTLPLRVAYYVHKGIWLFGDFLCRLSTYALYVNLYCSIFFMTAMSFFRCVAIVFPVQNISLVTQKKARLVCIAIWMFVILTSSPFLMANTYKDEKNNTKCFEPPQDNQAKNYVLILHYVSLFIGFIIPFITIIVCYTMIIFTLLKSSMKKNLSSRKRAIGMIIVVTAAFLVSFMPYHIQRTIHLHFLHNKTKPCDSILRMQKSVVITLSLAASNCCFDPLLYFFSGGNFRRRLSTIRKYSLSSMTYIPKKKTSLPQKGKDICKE

[2] = target: T1, Cysteinyl leukotriene receptor 1 (Cavia porcellus); assay: Compound was tested for its inhibitory activity against specific binding of [3H]LTD4 to guinea pig trachea.; assay type: tissue-based
Cavia porcellus [3] = assay: Inhibition of aerosol administered LTD4-induced airway obstruction after oral administration in guinea pig 2 hr after administration; assay type: functional
Cavia porcellus [4] = assay: Inhibition of aerosol administered LTD4-induced airway obstruction after oral administration in guinea pig 6 hr after administration; assay type: functional
[5] = target: T2, Cysteinyl leukotriene receptor 1 (Cavia porcellus, UniProt Q2NNR5); assay: Compound was tested for its inhibitory activity against specific binding of [3H]LTD4 to guinea pig lung membrane.; assay type: tissue-based
T2 sequence (Q2NNR5 whole entry): T1 sequence (whole entry)

Compound | pKB [1] | pKB [2] | Ki [5] | Inhibition (Cavia porcellus [3]) | Inhibition (Cavia porcellus [4])
Clc1ccc2ccc(COc3cccc(CN4CCc5cccc(CCc6nnn[nH]6)c54)c3)nc2c1 | 8.4 | 7.8 | – | – | –
Clc1ccc2ccc(COc3ccc(Cn4ccc5cccc(CCc6nnn[nH]6)c54)cc3)nc2c1 | – | – | – | 16% | –
c1cc(CCc2nnn[nH]2)c2c(c1)CCN2Cc1ccc(OCc2ccc3ccccc3n2)cc1 | 8.3 | 7.9 | – | – | –
C(=C\c1ccc2ccccc2n1)/c1cccc(CN2CCc3cccc(CCc4nnn[nH]4)c32)c1 | 8.6 | – | – | – | –
Clc1ccc2ccc(/C=C/c3cccc(Cn4ccc5cccc(CCc6nnn[nH]6)c54)c3)nc2c1 | – | – | – | 69% | 21%

Continued, in another order:

pKB [1] | pKB [2] | Ki [5] | Compound | Inhibition (Cavia porcellus [3]) | Inhibition (Cavia porcellus [4])
8.5 | 7.6 | – | Clc1ccc2ccc(COc3ccc(CN4CCc5cccc(CCc6nnn[nH]6)c54)cc3)nc2c1 | 51% | 81%
8.6 | – | 31.6 nM | Clc1ccc2ccc(/C=C/c3ccc(CN4CCc5cccc(CCc6nnn[nH]6)c54)cc3)nc2c1 | – | –
8.6 | 7 | – | Clc1ccc2ccc(/C=C/c3cccc(CN4CCc5cccc(CCc6nnn[nH]6)c54)c3)nc2c1 | 91% | 74%
8.6 | – | 5.01 nM | Clc1ccc2ccc(/C=C/c3cccc(CN4CCc5cccc(OCc6nn[nH]n6)c54)c3)nc2c1 | – | –
